From patent US20260191968A1, “PROTAC DEGRADERS OF MLLT1 AND/OR MLLT3” (DARK BLUE THERAPEUTICS LTD, priority 2024, published 2026)

Columns and labels:
MLLT1 = biological target: T1, MLLT1 (Homo sapiens, UniProt Q03111); assay: MLLT1 degradation assay in MV4-11 cells (JESS chemiluminescent detection), three concentrations, 24 h; format: cell-based; conditions: with respect to DMSO control
T1 construct: host or cells: MV4-11
T1 sequence (Q03111 1-559): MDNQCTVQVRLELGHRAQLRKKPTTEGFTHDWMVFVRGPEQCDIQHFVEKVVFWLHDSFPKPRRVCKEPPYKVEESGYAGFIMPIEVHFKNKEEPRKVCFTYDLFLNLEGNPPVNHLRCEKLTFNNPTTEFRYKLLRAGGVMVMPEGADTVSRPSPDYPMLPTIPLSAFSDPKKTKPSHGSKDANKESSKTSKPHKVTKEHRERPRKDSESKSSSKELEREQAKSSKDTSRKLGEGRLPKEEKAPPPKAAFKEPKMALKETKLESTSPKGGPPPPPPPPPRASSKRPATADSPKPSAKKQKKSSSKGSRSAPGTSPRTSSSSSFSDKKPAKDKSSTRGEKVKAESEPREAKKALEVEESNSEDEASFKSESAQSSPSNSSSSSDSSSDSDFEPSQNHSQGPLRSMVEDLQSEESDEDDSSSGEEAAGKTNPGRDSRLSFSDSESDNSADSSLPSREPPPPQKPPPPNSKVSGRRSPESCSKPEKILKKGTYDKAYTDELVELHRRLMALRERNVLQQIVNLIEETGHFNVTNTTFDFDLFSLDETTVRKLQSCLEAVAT
Outline: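 Read-out is % MLLT1 degradation versus DMSO, from band peak areas on a JESS chemiluminescent system. Cells (MV4-11) were exposed for 24 h at 37° C to three compound levels, 10, 100 and 1000 nM, in 0.1% DMSO.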

MV4-11 cells = assay: MV4-11 cellular proliferative assay, Assay Format B (CTG 2.0, 168 h); format: cell-based; conditions: Homo sapiens, 168 h (7 days), CTG 2.0, read-out: IC50 (MV4-11 cellular proliferative assay, Assay format B)
Outline: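 Viability read by CellTiter-Glo 2.0 luminescence after 7-day (168 h) compound exposure of MV4-11 cells in IMDM/10% FBS. Ten 3-fold concentrations starting at 1 uM or 100 nM, 0.3% final DMSO; curves normalised to DMSO control, four-parameter fit.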

Compound	MLLT1% Degradation @ 0.01 μM (MLLT1)	MLLT1% Degradation @ 0.1 μM (MLLT1)	MLLT1% Degradation @ 1 μM (MLLT1)	IC50 (MV4-11 cells) [µM]
CN1CCC[C@@H]1c1cc2cnc(NC(=O)c3ccc(N4CCN(C(=O)CC5CCN(c6cccc7c6CN(C6CCC(=O)NC6=O)C7=O)CC5)CC4)nc3)cc2[nH]1 (stereo partly drawn) [Example 108, 6-(4-(2-(1-(2-(2,6-dioxopiperidin-3-yl)-1-oxoisoindolin-4-yl)piperidin-4-yl)acetyl)piperazin-1-yl)-N-(2-((R)-1-methylpyrrolidin-2-yl)-1H-pyrrolo[3,2-c]pyridin-6-yl)nicotinamide]	A (Category A: A ≥ 75% degradation)	A (Category A: A ≥ 75% degradation)	B (Category B: 50% ≤ B < 75% degradation)	≤ 0.1
CN(CCC#Cc1cccc2c1CN(C1CCC(=O)NC1=O)C2=O)c1ccc(C(=O)Nc2cc3[nH]c([C@H]4CCCN4C)cc3cn2)cc1 (stereo partly drawn) [Example 87, 4-((4-(2-(2,6-dioxopiperidin-3-yl)-1-oxoisoindolin-4-yl)but-3-yn-1-yl)(methyl)amino)-N-(2-((R)-1-methylpyrrolidin-2-yl)-1H-pyrrolo[3,2-c]pyridin-6-yl)benzamide]	A (Category A: A ≥ 75% degradation)	A (Category A: A ≥ 75% degradation)	B (Category B: 50% ≤ B < 75% degradation)	≤ 0.1
CN1CCC[C@@H]1c1cc2cnc(NC(=O)c3ccc(N4CCN(C(=O)CC5CCN(c6cccc7c6CN(C6CCC(=O)NC6=O)C7=O)CC5)CC4)cc3)cc2[nH]1 (stereo partly drawn) [Example 88, 4-(4-(2-(1-(2-(2,6-dioxopiperidin-3-yl)-1-oxoisoindolin-4-yl)piperidin-4-yl)acetyl)piperazin-1-yl)-N-(2-((R)-1-methylpyrrolidin-2-yl)-1H-pyrrolo[3,2-c]pyridin-6-yl)benzamide]	B (Category B: 50% ≤ B < 75% degradation)	A (Category A: A ≥ 75% degradation)	B (Category B: 50% ≤ B < 75% degradation)	≤ 0.1
[2H]C([2H])([2H])N1CCC[C@@H]1c1cc2cnc(NC(=O)c3ccc(CCCC#Cc4cccc5c4CN(C4CCC(=O)NC4=O)C5=O)cc3)cc2[nH]1 (stereo partly drawn) [Example 111, 4-(5-(2-(2,6-dioxopiperidin-3-yl)-1-oxoisoindolin-4-yl)pent-4-yn-1-yl)-N-(2-((R)-1-(methyl-d3)pyrrolidin-2-yl)-1H-pyrrolo[3,2-c]pyridin-6-yl)benzamide]	A (Category A: A ≥ 75% degradation)	A (Category A: A ≥ 75% degradation)	A (Category A: A ≥ 75% degradation)	≤ 0.1
COc1cc(CCCCC#Cc2cccc3c2CN(C2CCC(=O)NC2=O)C3=O)ccc1C(=O)Nc1cc2[nH]c([C@H]3CCCN3C)cc2cn1 (stereo partly drawn) [Example 115, 4-(6-(2-(2,6-dioxopiperidin-3-yl)-1-oxoisoindolin-4-yl)hex-5-yn-1-yl)-2-methoxy-N-(2-((R)-1-methylpyrrolidin-2-yl)-1H-pyrrolo[3,2-c]pyridin-6-yl)benzamide]	A (Category A: A ≥ 75% degradation)	A (Category A: A ≥ 75% degradation)	A (Category A: A ≥ 75% degradation)	≤ 0.1
CN1CCC[C@@H]1c1cc2cnc(NC(=O)c3ccc(CCCC4CCN(c5cccc6c5CN(C5CCC(=O)NC5=O)C6=O)CC4)cc3)cc2[nH]1 (mixture of isomers) [Example 76, 4-(3-(1-(2-(2,6-dioxopiperidin-3-yl)-1-oxoisoindolin-4-yl)piperidin-4-yl)propyl)-N-(2-((R)-1-methylpyrrolidin-2-yl)-1H-pyrrolo[3,2-c]pyridin-6-yl)benzamide]	A (Category A: A ≥ 75% degradation)	A (Category A: A ≥ 75% degradation)	A (Category A: A ≥ 75% degradation)	≤ 0.1
CN1CCC[C@@H]1c1[nH]c2cc(NC(=O)c3ccc(OCCC4CCN(c5cccc6c5CN(C5CCC(=O)NC5=O)C6=O)CC4)cc3)ncc2c1Cl (mixture of isomers) [Example 160, N-(3-chloro-2-((R)-1-methylpyrrolidin-2-yl)-1H-pyrrolo[3,2-c]pyridin-6-yl)-4-(2-(1-(2-(2,6-dioxopiperidin-3-yl)-1-oxoisoindolin-4-yl)piperidin-4-yl)ethoxy)benzamide]	A (Category A: A ≥ 75% degradation)	A (Category A: A ≥ 75% degradation)	A (Category A: A ≥ 75% degradation)	≤ 0.1
CN1CCC[C@@H]1c1cc2cnc(NC(=O)c3ccc(OCCC4CCN(c5cccc6c5CN(C5CCC(=O)NC5=O)C6=O)CC4)cc3)cc2[nH]1 (mixture of isomers) [Example 79, 4-(2-(1-(2-(2,6-dioxopiperidin-3-yl)-1-oxoisoindolin-4-yl)piperidin-4-yl)ethoxy)-N-(2-((R)-1-methylpyrrolidin-2-yl)-1H-pyrrolo[3,2-c]pyridin-6-yl)benzamide]	A (Category A: A ≥ 75% degradation)	A (Category A: A ≥ 75% degradation)	A (Category A: A ≥ 75% degradation)	≤ 0.1
CN1CCC[C@@H]1c1cc2cnc(NC(=O)c3ccc(OCCC4CCN(c5cccc6c5C(=O)N(C5CCC(=O)NC5=O)C6=O)CC4)cc3)cc2[nH]1 (stereo partly drawn) [Example 82, 4-(2-(1-(2-(2,6-dioxopiperidin-3-yl)-1,3-dioxoisoindolin-4-yl)piperidin-4-yl)ethoxy)-N-(2-((R)-1-methylpyrrolidin-2-yl)-1H-pyrrolo[3,2-c]pyridin-6-yl)benzamide]	B (Category B: 50% ≤ B < 75% degradation)	A (Category A: A ≥ 75% degradation)	A (Category A: A ≥ 75% degradation)	≤ 0.1

Continued, values first:

MLLT1% Degradation @ 0.01 μM (MLLT1)	MLLT1% Degradation @ 0.1 μM (MLLT1)	MLLT1% Degradation @ 1 μM (MLLT1)	IC50 (MV4-11 cells) [µM]	Compound
A (Category A: A ≥ 75% degradation)	A (Category A: A ≥ 75% degradation)	A (Category A: A ≥ 75% degradation)	≤ 0.1	CN1CCC[C@@H]1c1cc2cnc(NC(=O)c3ccc(OCCC4CCN(c5cccc6c5CN(C5CCC(=O)NC5=O)C6=O)CC4)c(F)c3F)cc2[nH]1 (stereo partly drawn) [Example 231, 4-(2-(1-(2-(2,6-dioxopiperidin-3-yl)-1-oxoisoindolin-4-yl)piperidin-4-yl)ethoxy)-2,3-difluoro-N-(2-((R)-1-methylpyrrolidin-2-yl)-1H-pyrrolo[3,2-c]pyridin-6-yl)benzamide]
A (Category A: A ≥ 75% degradation)	A (Category A: A ≥ 75% degradation)	A (Category A: A ≥ 75% degradation)	≤ 0.1	C[C@@H]1CN(CC2CCN(c3cccc4c3CN(C3CCC(=O)NC3=O)C4=O)CC2)CCN1c1ccc(C(=O)Nc2cc3[nH]c([C@H]4CCCN4C)cc3cn2)cn1 (stereo partly drawn) [Example 163, 6-((2R)-4-((1-(2-(2,6-dioxopiperidin-3-yl)-1-oxoisoindolin-4-yl)piperidin-4-yl)methyl)-2-methylpiperazin-1-yl)-N-(2-((R)-1-methylpyrrolidin-2-yl)-1H-pyrrolo[3,2-c]pyridin-6-yl)nicotinamide]
A (Category A: A ≥ 75% degradation)	A (Category A: A ≥ 75% degradation)	A (Category A: A ≥ 75% degradation)	≤ 0.1	CN1CCC[C@@H]1c1cc2cnc(NC(=O)c3ccc(OCCc4ccc(-c5cccc6c5CN(C5CCC(=O)NC5=O)C6=O)cc4)cc3F)cc2[nH]1 (stereo partly drawn) [Example 207, 4-(4-(2-(2,6-dioxopiperidin-3-yl)-1-oxoisoindolin-4-yl)phenethoxy)-2-fluoro-N-(2-((R)-1-methylpyrrolidin-2-yl)-1H-pyrrolo[3,2-c]pyridin-6-yl)benzamide]
A (Category A: A ≥ 75% degradation)	A (Category A: A ≥ 75% degradation)	A (Category A: A ≥ 75% degradation)	≤ 0.1	CN1CCC[C@@H]1c1cc2cnc(NC(=O)c3ccc(C4CCN(CC5CCN(c6cccc7c6CN(C6CCC(=O)NC6=O)C7=O)CC5)CC4)cc3)cc2[nH]1 (stereo partly drawn) [Example 167, 4-(1-((1-(2-(2,6-dioxopiperidin-3-yl)-1-oxoisoindolin-4-yl)piperidin-4-yl)methyl)piperidin-4-yl)-N-(2-((R)-1-methylpyrrolidin-2-yl)-1H-pyrrolo[3,2-c]pyridin-6-yl)benzamide]
